From patent US20050059605A1, “Chemically modified metabolites of regulatory peptides and methods of producing and using same” (priority 2003, published 2005)
Where no end group is shown, it is not given here.

What was measured:
[1] = test system: freshly isolated hepatocytes; assay: Effects of glucagon and analogues on freshly isolated hepatocyte cAMP production; type: cell-based, rat; settings: 10^−7M, n=2, FIG. 3, compared to analogue 357 or glucagon
Experimental: All experimental procedures were performed under isoflurane (2.5%) anesthesia according to an experimental protocol approved by Ste-Justine Hospital (Montreal) animal care committee. […] The animal was perfused through the heart to remove a maximal amount of blood from the liver (acquire a light brown color). A catheter (PE-90) was then inserted in the portal vein and the liver further perfused to eliminate any trace of blood. The hepatic artery was also cannulated (PE-50) and perfused. The liver was then carefully removed from the abdominal cavity and placed into a 250 ml beaker. Digesting HEPES buffer containing 9650U collagenase and 20U elastase at 37° C. was placed into the beaker and circulated in a closed loop via the catheters for 10 minutes at maximal speed. The buffer was replaced with a fresh solution of collagenase and elastase and perfusion continues for 10 additional minutes. […]
Stimulation studies were performed at a concentration of 1 million cells per tube; 5 minutes of pre-treatment with 0.1 mM IBMX, with or without glucagon agonists (10^−7M) compared to treatment with glucagon (10^−7M). […] The cAMP levels in the tubes were determined using a radioimmunoassay kit (Amersham DPC kit). The data are expressed as pmol cAMP/million cells.

RINm5F cells = assay: Dose response curves of GLP-1 analogues on cAMP production in RINm5F cells; type: cell-based, rat; settings: n=3, FIG. 4
Experimental: RINm5F cells (ATCC # CRL-2058) were grown according to the manufacturer's specifications. Cells from […] confluent flasks were trypsinized and counted. 20 000 cells/well were seeded in 96-well plate (White Costar plate with clear bottom) in 100 μl media. Cells were grown four days past confluence before being using for experiments.
Stock solutions of agents tested were prepared in DDH2O+0.1% BSA at a concentration of 1 mM (correcting for peptide purity and peptide content when available) immediately prior to the beginning of the assay. From the stock solutions, 2× dilutions (2×10^−12 M to 2×10^−5 M) were made in RPMI medium containing 0.5 mM IBMX. Cell culture media was gently removed from wells. Cells were then washed once with RPMI containing 0.5 mM IBMX and then pre-incubated in 100 μl RPMI/0.5 mM IBMX at 37° C. for 10 minutes. After pre-incubation, 100 μl of each 2× dilutions were added to wells in triplicates and incubated at 37° C. for 40 minutes. At the end of incubation, the supernatant was collected and assayed for cAMP using a radioimmunoassay kit (DPC). Radioactive counts were transformed into cAMP amounts using a standard curve. cAMP values were corrected for total protein content in the corresponding wells determined by Coomassie blue assay. cAMP values were expressed as mean±SEM in pmol/mg protein (FIG. 2). […]

C57BL/ks db/db mice = assay: Glucose levels after subcutaneous injection in fasted and re-fed db/db mice; type: in vivo; settings: 25 μg/mice (500 μg/kg) subcutaneous, 30 minutes of feeding subsequent to overnight fasting, compared to native GLP-1, FIG. 5
[2] = test system: whole anterior pituitary culture; assay: cAMP production stimulated by GRF analogues in whole anterior pituitary culture; type: cell-based; settings: 10^−6 M, compared to analogue 356, FIG. 6
Source text: For comparison, a DPPIV resistant analogue of GRF (analogue 280) was shown.

Glucagon (3-29) amide (QGTFTSDYSKYLDSRRAQDFVQWLMNT-NH2; UniProt P01275 55-81, looked up, fragment) [Compound 357, glucagon analogue lacking the His-Ser dipeptide, reference compound]
intracellular cAMP levels [1]: negligible response

4-Methoxyphenethylamine-mGly-Glucagon (3-29) amide [Compound 361]
intracellular cAMP levels [1]: significantly higher intracellular cAMP levels

4-Methoxyphenetylamine-mGly-GLP-1 (9-36) amide [Compound 288]
cAMP production (RINm5F cells): increased CAMP production | glucose levels (hypoglycemic response) (C57BL/ks db/db mice): more significant hypoglycemic response

4-Methoxyphenethylamine-mGly-GRF-1 (3-29) amide [Compound 358]
cAMP response [2]: significantly greater cAMP response
